Assay results taken from patent US8293481B2, “Biomarkers for chronic vascular dysfunction” (Mayo Foundation for Medical Education and Research, priority 2006, dated 2012).

How the values were obtained:
Type in all cases: in vivo, rat
[1] = system: Cxcl12 (chemokine (C-X-C motif) ligand 12); assay: Real-time PCR gene expression in aorta post MI; settings: 4 weeks post-infarction (increased at 2 weeks), FIG. 1
Excerpt: (§1) After intubation, rats were ventilated continuously (room air) using a small animal ventilator (Model 683, Harvard Apparatus, Holliston, Mass.). A left lateral thoracotomy incision was made along the 5th intercostal space and after the pericardium was opened, the heart was exteriorized using a retention suture placed at the apex. The left anterior descending coronary artery (LAD) was ligated twice using 6-0 prolene suture (Ethicon, Cornelia, Ga.). After chest closure with running 3-0 vicryl suture (Ethicon), rats were put in a recovery chamber with a heating pad and warming light. The post-operative survival rate reached 80%. […] Rats were fed a standard diet of Teklad rodent feed (Harlan) ad libitum and kept on a 12:12 h light-dark cycle. Rats were sacrificed at designated time intervals of 2 weeks and 4 weeks after surgery. […] Isolation of total RNA: […] Surrounding peri-adventitial tissues, fat, and endothelium were then carefully cleaned away and removed. The remaining vascular smooth muscle was then frozen with liquid nitrogen, pulverized into fine powder, and resuspended in 600 μl of Buffer RLT with β-ME (10 μl β-ME: 1 ml Buffer RLT, Qiagen, Valencia, Calif.). The lysate was pipetted directly onto a QIAshredder spin column (Qiagen) placed in a 2 ml collection tube and centrifuged for 5 minutes at 14000 rpm, 4° C. The supernatant was transferred to a new microcentrifuge tube and 1 volume of 70% ethanol was added and mixed. The cleared lysate was then transferred to an RNeasy mini-column (Qiagen) placed in a 2 ml collection tube and spun for 15 seconds at ≧10,000 rpm, 4° C. The flow-through was discarded and 700 μl of Buffer RW1 (Qiagen) was added to the RNeasy column. After the column was spun for 15 seconds at ≧10,000 rpm (4° C.), it was transferred into a new 2 ml collection tube, washed, spun twice with 500 μl Buffer RPE (Qiagen), and eluted with 40 μl of RNase-free water using a microcentrifuge (≧10,000 rpm, 4° C.) for 1 minute. Final RNA samples were stored at -20° C. to prevent degradation. Confirmation of microarray result by quantitative real-time PCR: The remaining RNA from the aortic or portal vein RNA sample was quantitatively converted to single stranded cDNA using the High-Capacity cDNA Archive Kit (Applied Biosystems, Foster City, Calif.). Briefly, 50 μl of RNA sample was mixed with 50 μl of 2×RT master mix (10 μl of 10× Reverse Transcription Buffer, 4 μl of 25× dNTPs, 10 μl of 10× random primers, 5 μl of […] Reverse Transcriptase at 50 U/μl, 21 μl of RNase-free H2O) and pipetted into 0.2 ml MICROAMP® PCR Reaction Tubes with Caps (Applied Biosystems, Foster City, Calif.). Reverse transcription was performed using a thermal cycler (Eppendorf Mastercycler gradient) with incubation conditions set at 25° C. for 10 minutes followed by 37° C. for 120 minutes. The synthesized cDNA was then mixed with TAQMAN® Universal PCR Master Mix (2.5 μl of cDNA+47.5 μl of RNase-free H2O+50 μl of Master Mix) and loaded onto 384-Well micro fluid cards for quantitative real-time PCR (TAQMAN® Low Density Arrays, Applied Biosystems). This was done with customer-selected TAQMAN® Gene Expression Assays preloaded into each of the 384 wells. The 7900 HT Gene Expression Micro Fluid Card Configuration 2 (Applied Biosystems) with a total of 24 targets was used; 22 targets were selected to include the results from the microarray study, and the remaining two targets were controls GAPDH and 18S controls. For each cDNA sample, four replicates were analyzed for real-time PCR. After all ports of the Micro Fluidic Card were loaded with cDNA, it was spun for even distribution into the wells using a Sorvall Legend centrifuge (1 minute at 1200 rpm). The array was then run on the Applied Biosystems 7900HT Fast Real-time PCR System, and the data were analyzed using an Applied Biosystems RQ Manager Software (SDS 2.1). […]

[2] = system: IL-1β (interleukin 1 beta); assay: Real-time PCR gene expression in aorta post MI; settings: 2 weeks post-infarction
Excerpt: as §1

[3] = system: Baat (bile acid-Coenzyme A amino acid N-acyltransferase); assay: Real-time PCR gene expression in aorta post MI; settings: 2 weeks post-infarction
Excerpt: as §1

Rock2 (Rho kinase 2) = assay: Real-time PCR gene expression in aorta post MI; settings: 2 weeks post-infarction
Excerpt: as §1

[4] = system: Raf1 (v-raf-1 murine leukemia viral oncogene homolog 1); assay: Real-time PCR gene expression in aorta post MI; settings: 2 weeks post-infarction
Excerpt: as §1

[5] = system: Fmr1 (fragile X mental retardation syndrome 1 homolog); assay: Real-time PCR gene expression in aorta post MI; settings: 2 weeks post-infarction
Excerpt: as §1

[6] = system: Gls2 (glutaminase 2 (liver, mitochondrial)); assay: Real-time PCR gene expression in aorta post MI; settings: 2 weeks post-infarction
Excerpt: as §1

Agt (angiotensinogen) = assay: Real-time PCR gene expression in aorta post MI; settings: 4 weeks post-infarction (increased at 2 weeks), FIG. 1
Excerpt: as §1

[7] = system: MIR16 (membrane interacting protein of RGS16); assay: Real-time PCR gene expression in aorta post MI; settings: 4 weeks post-infarction (increased at 2 weeks), FIG. 1
Excerpt: as §1

Taok1 (TAO kinase 1) = assay: Real-time PCR gene expression in aorta post MI; settings: 2 weeks post-infarction
Excerpt: as §1

[8] = system: panel of genes listed in b69 and b71 (Tmlhe, Af6, F2, Ywag, PPAR A, Resp18, Edn1, oxytocin and others); assay: Real-time PCR gene expression in aorta post MI, genes listed together as unchanged; settings: post MI groups versus uninfarcted control
Excerpt: After intubation, rats were ventilated continuously (room air) using a small animal ventilator (Model 683, Harvard Apparatus, Holliston, Mass.). A left lateral thoracotomy incision was made along the 5th intercostal space and after the pericardium was opened, the heart was exteriorized using a retention suture placed at the apex. The left anterior descending coronary artery (LAD) was ligated twice using 6-0 prolene suture (Ethicon, Cornelia, Ga.). After chest closure with running 3-0 vicryl suture (Ethicon), rats were put in a recovery chamber with a heating pad and warming light. The post-operative survival rate reached 80%. […] Confirmation of microarray result by quantitative real-time PCR: The remaining RNA from the aortic or portal vein RNA sample was quantitatively converted to single stranded cDNA using the High-Capacity cDNA Archive Kit (Applied Biosystems, Foster City, Calif.). […] The synthesized cDNA was then mixed with TAQMAN® Universal PCR Master Mix (2.5 μl of cDNA+47.5 μl of RNase-free H2O+50 μl of Master Mix) and loaded onto 384-Well micro fluid cards for quantitative real-time PCR (TAQMAN® Low Density Arrays, Applied Biosystems). […] For each cDNA sample, four replicates were analyzed for real-time PCR. […] The array was then run on the Applied Biosystems 7900HT Fast Real-time PCR System, and the data were analyzed using an Applied Biosystems RQ Manager Software (SDS 2.1). […]

C[C@H](CS)C(=O)N1CCC[C@H]1C(=O)O [Captopril, 1-[(2S)-3-mercapto-2-methylpropionyl]-L-proline]
Cxcl12 expression, captopril versus placebo [1]: difference disappeared | IL1-β expression, placebo or captopril therapy [2]: did not demonstrate any difference | Baat expression, placebo or captopril therapy [3]: did not demonstrate any difference | Rock2 expression, placebo or captopril therapy (Rock2 (Rho kinase 2)): did not demonstrate any difference | Raf1 expression, placebo or captopril therapy [4]: did not demonstrate any difference | Fmr1 expression, placebo or captopril therapy [5]: did not demonstrate any difference | Gls2 expression, placebo or captopril therapy [6]: did not demonstrate any difference | Agt expression, captopril versus placebo (Agt (angiotensinogen)): difference disappeared | MIR16 expression, captopril versus placebo [7]: difference disappeared | Taok1 expression, placebo or captopril therapy (Taok1 (TAO kinase 1)): did not demonstrate any difference | expression of 14 genes (Taok1, Raf1, Fmr1, Rock2, Baat, Gls2, Acot8, Tmlhe, Af6, F2, Ywag, PPAR A, Resp18, Edn1 and oxytocin) ([8]; 2 weeks post infarction): no significant change | expression of 14 genes (MIR16, Agt, Cxcl12, Seh1h, Cox5, HGF, Tmlhe, Af6, F2, Ywag, PPAR A, Resp18, Edn1 and oxytocin) ([8]; 4 weeks post infarction): no significant change
